This note sets out measurements from patent publication US7230116B2, “Pyrazolyl-substituted heterocycles and their use as phytosanitary products” (Bayer CropScience, AG, priority 2001, dated 2007).

The test system of data set [1] is cotton aphid (Aphis gossypii). Briefly: Aphis gossypii test (cotton leaves dipped). The data set is classed as in vivo. To be noted: 500 ppm active compound. The method, then:
(§1) Aphis gossypii Test [table] To produce a suitable preparation of active compound, 1 part by weight of active compound is mixed with the stated amounts of solvent and emulsifier, and the concentrate is diluted with emulsifier-containing water to the desired concentration. Cotton leaves (Gossypium hirsutum) which are heavily infested by the cotton aphid (Aphis gossypii) are treated by being dipped into the preparation of active compound of the desired concentration. After the desired period of time, the kill in % is determined. 100% means that all aphids have been killed; 0% means that none of the aphids have been killed.

The test system of data set [2] is Lolium. Kind of data set: Post-emergence test, greenhouse. To be noted: after three weeks. It counts as in vivo. The method, then: (§2) Post-Emergence Test [table] To produce a suitable preparation of active compound, 1 part by weight of active compound is mixed with the stated amount of solvent, the stated amount of emulsifier is added and the concentrate is diluted with water to the desired concentration. Test plants of a height of 5-15 cm are sprayed with the preparation of active compound such that the particular amounts of active compound desired are applied per unit area. The concentration of the spray liquor is chosen such that the particular amounts of active compound desired are applied in 1000 l of water/ha. After three weeks, the degree of damage to the plants is rated in % damage in comparison to the development of the untreated control. The figures denote: [table]

Data set [3] deals with Abutilon. Kind of data set: Post-emergence test, greenhouse. It counts as in vivo. To be noted: 250 g ai/ha, after three weeks. The method, then:
as §2

The test system of data set [4] is Alopecurus. Kind of data set: Post-emergence test, greenhouse. It counts as in vivo. The following applies: after three weeks. The method, then:
as §2

The test system of data set [5] is Bromus. Kind of data set: Post-emergence test, greenhouse. It counts as in vivo. To be noted: after three weeks. The method, then: as §2
Data set [6] has as its system Viola. Kind of data set: Post-emergence test, greenhouse. The data set is classed as in vivo. The following applies: 125 g ai/ha, after three weeks. The method, then:
as §2

For data set [7], the system named is Oilseed rape. Briefly: Post-emergence test, greenhouse. It counts as in vivo. To be noted: 125 g ai/ha, after three weeks. The method, then: as §2
The subject of data set [8] is Avena fatua. Kind of data set: Post-emergence test, greenhouse. The data set is classed as in vivo. To be noted: after three weeks. The method, then: as §2
For data set [9], the system named is Sugarbeet. Kind of data set: Post-emergence test, greenhouse. It counts as in vivo. The following applies: 250 g ai/ha, after three weeks. The method, then: as §2
Data set [10] relates to Setaria. Briefly: Post-emergence test, greenhouse. It counts as in vivo. The following applies: after three weeks. The method, then: as §2
The subject of data set [11] is greenhouse red spider mite (Tetranychus urticae). Kind of data set: Tetranychus test (OP-resistant/dip treatment). It counts as in vivo. The following applies: 100 ppm active compound, OP-resistant, dip treatment. The method, then:
Tetranychus Test (OP-Resistant/Dip Treatment)
To produce a suitable preparation of active compound, 1 part by weight of active compound is mixed with the stated amounts of solvent and emulsifier, and the concentrate is diluted with emulsifier-containing water to the desired concentration.
Bean plants (Phaseolus vulgaris) which are heavily infested by all stages of the greenhouse red spider mite (Tetranychus urticae) are treated by being dipped into a preparation of active compound of the desired concentration.
After the desired period of time, the effect in % is determined. 100% means that all spider mites have been killed; 0% means that none of the spider mites have been killed.

Data set [12] concerns caterpillars of the armyworm (Spodoptera frugiperda). Briefly: Spodoptera frugiperda test. It counts as in vivo. To be noted: 500 ppm active compound. The method, then:
(§3) Spodoptera frugiperda Test [table] To produce a suitable preparation of active compound, 1 part by weight of active compound is mixed with the stated amounts of solvent and emulsifier, and the concentrate is diluted with emulsifier-containing water to the desired concentration. Cabbage leaves (Brassica oleracea) are treated by being dipped into the preparation of active compound of the desired concentration and are populated with caterpillars of the armyworm (Spodoptera frugiperda) while the leaves are still moist. After the desired period of time, the kill in % is determined. 100% means that all caterpillars have been killed; 0% means that none of the caterpillars have been killed.

For data set [13], the system named is caterpillars of the diamondback moth (Plutella xylostella). Briefly: Plutella test. The following applies: 500 ppm active compound. It counts as in vivo. The method, then:
as §3, with “Plutella” for “Spodoptera frugiperda”, “diamondback moth (Plutella xylostella)” for “armyworm (Spodoptera frugiperda)”

The subject of data set [14] is larvae of the mustard beetle (Phaedon cochleariae). Kind of data set: Phaedon larvae test. The data set is classed as in vivo. To be noted: 500 ppm active compound. The method, then:
as §3, with “Phaedon larvae Test” for “Spodoptera frugiperda Test”, “with larvae” for “with caterpillars”, “the mustard beetle (Phaedon cochleariae)” for “the armyworm (Spodoptera frugiperda)”, “all beetle larvae” for “all caterpillars”, “the beetle larvae” for “the caterpillars”

Data set [15] concerns peach aphid (Myzus persicae). Briefly: Myzus test (cabbage leaves dipped). It counts as in vivo. To be noted: 500 ppm active compound. The method, then: as §1, with “Myzus” for “Aphis gossypii”, “Cabbage” for “Cotton”, “(Brassica oleracea)” for “(Gossypium hirsutum)”, “peach” for “cotton”, “(Myzus persicae)” for “(Aphis gossypii)”
The subject of data set [16] is Sinapis. Kind of data set: Post-emergence test, greenhouse. It counts as in vivo. The following applies: 250 g ai/ha, after three weeks. The method, then:
as §2

In data set [17] the test system is Amaranthus. Briefly: Post-emergence test, greenhouse. The data set is classed as in vivo. The following applies: after three weeks. The method, then:
as §2

A short description of data set [18]: logP determination by HPLC (reversed-phase C18), EEC Directive 79/831 Annex V.A 8. The following applies: HPLC reversed-phase column (C 18), 43° C.; for chromatographic logP: reversed-phase C18 HPLC column, pH 2.3. It counts as physicochemical. The method, then: The logP values given for the Examples (I-2-A-a) were determined in accordance with EEC Directive 79/831 Annex V.A 8 by HPLC (High Performance Liquid Chromatography) using a reversed-phase column (C 18). Temperature: 43° C. • (a) Mobile phases for the determination in the acidic range: 0.1% aqueous phosphoric acid, acetonitrile; linear gradient from 10% acetonitrile to 90% acetonitrile. • (b) Mobile phases for the determination in the neutral range: 0.01 molar aqueous phosphate buffer solution, acetonitrile; linear gradient from 10% acetonitrile to 90% acetonitrile. Calibration was carried out using unbranched alkan-2-ones (of 3 to 16 carbon atoms) with known logP values (determination of the logP values by the retention times using linear interpolation between two successive alkanones).

Consider `COC1CCC2(CC1)NC(=O)C(n1nc(-c3ccc(Cl)cc3)cc1C)=C2O` (single isomer, unassigned) [Example I-1-A-a-4], for which the “Kill rate in % after 6d” value in data set [1] was determined as 95%; in [15], 90%. Moreover, the “% damage, Lolium” value in [2] (125 g ai/ha) and in [2] (250 g ai/ha) was 100% in each case. For the same compound, in [3], the “% damage, Abutilon” value is 80%. The “% damage, Alopecurus” value in [4] (125 g ai/ha) and in data set [4] (250 g ai/ha) was 100% each time. Also, the “% damage, Bromus” value in data set [5] (125 g ai/ha) and in data set [5] (250 g ai/ha) was 100% throughout. Also, in data set [6], the “% damage, Viola” value is recorded as 100%. Moreover, the “% damage, Oilseed rape” value in [7] was determined as 0%. Also, the “% damage, Avena fatua” value in data set [8] (125 g ai/ha) and in [8] (250 g ai/ha) was 100% throughout. In addition, the “% damage, Sugarbeet” value in [9] was determined as 10%. Moreover, the “% damage, Setaria” value in [10] (125 g ai/ha) and in data set [10] (250 g ai/ha) was 100% each time. Also, the “Kill rate in % after 7d” value in data set [11] is reported as 95%; in data set [12], 100%; in data set [13] it was 100%; in [14], 100%.
Turning to `CCOC(=O)OC1=C(n2nc(-c3ccc(Cl)cc3)cc2C)C(=O)NC12CCC(OC)CC2` (centres unmarked) [Example I-1-A-c-1], in [16], the “% damage, Sinapis” value is 80%. Also, the “% damage, Abutilon” value in data set [3] came out at 95%. The “% damage, Alopecurus” value in data set [4] (250 g ai/ha) is on record as 100%. The “% damage, Avena fatua” value in data set [8] (250 g ai/ha) came to 100%. The “% damage, Amaranthus” value in data set [17] (250 g ai/ha) amounted to 95%. In addition, the “% damage, Setaria” value in data set [10] (250 g ai/ha) stood at 100%. Further, the “Kill rate in % after 7d” value in [11] was 98%; in data set [12] it was 100%; in data set [14], 90%.
`CCOC(=O)OC1=C(c2c(C)nn(-c3ccc(Cl)cc3)c2C)C(=O)NC12CCC(OC)CC2` (centres unmarked) [Example I-1-B-c-1]: the “% damage, Alopecurus” value in data set [4] (2000 g ai/ha) is on record as 90%. The “% damage, Avena fatua” value in data set [8] (2000 g ai/ha) came to 90%. The “% damage, Amaranthus” value in data set [17] (2000 g ai/ha) worked out at 90%. Further, in [10] (2000 g ai/ha), the “% damage, Setaria” value stood at 95%.
For orientation: chromatographic logP means a lipophilicity value derived from retention on a column. `COC1CCC2(CC1)OC(=O)C(n1nc(-c3ccc(Cl)cc3)cc1C)=C2O` (centres unmarked) [Example I-2-A-a-1]: the chromatographic logP in data set [18] came to 2.05. In data set [11], the “Kill rate in % after 7d” value is 100%. For the same compound, in [15], the “Kill rate in % after 6d” value is 90%.
For the compound `Cc1cc(-c2ccc(Cl)cc2)nn1C1=C(O)C2(CCC(C(F)(F)F)CC2)OC1=O` (centres unmarked) [Example I-2-A-a-2], in data set [18], the “logP (pH 2.3)” value came to 2.74.
The same measure, in the same setting: with `Cc1cc(-c2ccc(Cl)cc2)nn1C1=C(O)C(C)(C)OC1=O` [Example I-2-A-a-3] the figure was 1.74; with `CCOC1CCC2(CC1)OC(=O)C(n1nc(-c3ccc(Cl)cc3)cc1C)=C2O` (centres unmarked) [Example I-2-A-a-4], 2.46.
Same read-out and setting: the same measure for `Cc1cc(-c2ccc(Cl)cc2)nn1C1=C(O)C2(Cc3ccccc3C2)OC1=O` [Example I-2-A-a-5]: 2.35.
Same read-out and setting: with `Cc1cc(-c2ccc(Cl)cc2)nn1C1=C(O)C2(CCCOC2)OC1=O` (centres unmarked) [Example I-2-A-a-6] the figure was 1.49; with `Cc1cc(-c2ccc(Cl)cc2)nn1C1=C(O)C2(CCOCC2)OC1=O` [Example I-2-A-a-7], 1.55; with `CCC1(C)OC(=O)C(n2nc(-c3ccc(Br)cc3)cc2C)=C1O` (centres unmarked) [Example I-2-A-a-8], 2.70.
As for `Cc1cc(-c2ccccc2)nn1C1=C(O)C(C)(C(C)C)OC1=O` (centres unmarked) [Example I-2-A-a-9], the “logP (pH 2.3)” value in data set [18] stood at 1.50.
The same measure, in the same setting: the same measure for `Cc1cc(-c2cccc(C(F)(F)F)c2)nn1C1=C(O)C(C)(CC(C)(C)C)OC1=O` (centres unmarked) [Example I-2-A-a-10]: 2.92.
Compound `Cc1cc(-c2ccc(Cl)cc2)nn1C1=C(OC(=O)C(C)(C)C)C2(CCCOC2)OC1=O` (centres unmarked) [Example I-2-A-b-1] registered a chromatographic logP in data set [18] of 4.32.
Same read-out and setting: with `CCOC(=O)C1(OC(=O)Cn2nc(-c3ccc(Cl)cc3)cc2C)CCC(OC)CC1` (centres unmarked) [Example III-A-1] the figure was 4.11.
